Reference: patent US10065963B2 (Incyte Corporation, priority 2015, dated 2018)
Where a name gives a salt, the structure may show the parent alone. Read-outs that look alike come from different tables or passages of the source.

Assays:
[1] = biological target: PI3Kγ (p110γ) Recombinant Human Protein (Homo sapiens (Human), UniProt P48736); assay: PI3K-γ scintillation proximity assay; format: biochemical; conditions: 2 μM ATP, 20 μM PIP2
[2] = biological target: PI3Kδ (p110δ/p85α) Recombinant Human Protein (Homo sapiens (Human), UniProt O00329); assay: PI3Kδ scintillation proximity assay; format: biochemical; conditions: 2 μM ATP, 20 μM PIP2
Chain of PI3Kδ (p110δ/p85α) Recombinant Human Protein (O00329 whole entry): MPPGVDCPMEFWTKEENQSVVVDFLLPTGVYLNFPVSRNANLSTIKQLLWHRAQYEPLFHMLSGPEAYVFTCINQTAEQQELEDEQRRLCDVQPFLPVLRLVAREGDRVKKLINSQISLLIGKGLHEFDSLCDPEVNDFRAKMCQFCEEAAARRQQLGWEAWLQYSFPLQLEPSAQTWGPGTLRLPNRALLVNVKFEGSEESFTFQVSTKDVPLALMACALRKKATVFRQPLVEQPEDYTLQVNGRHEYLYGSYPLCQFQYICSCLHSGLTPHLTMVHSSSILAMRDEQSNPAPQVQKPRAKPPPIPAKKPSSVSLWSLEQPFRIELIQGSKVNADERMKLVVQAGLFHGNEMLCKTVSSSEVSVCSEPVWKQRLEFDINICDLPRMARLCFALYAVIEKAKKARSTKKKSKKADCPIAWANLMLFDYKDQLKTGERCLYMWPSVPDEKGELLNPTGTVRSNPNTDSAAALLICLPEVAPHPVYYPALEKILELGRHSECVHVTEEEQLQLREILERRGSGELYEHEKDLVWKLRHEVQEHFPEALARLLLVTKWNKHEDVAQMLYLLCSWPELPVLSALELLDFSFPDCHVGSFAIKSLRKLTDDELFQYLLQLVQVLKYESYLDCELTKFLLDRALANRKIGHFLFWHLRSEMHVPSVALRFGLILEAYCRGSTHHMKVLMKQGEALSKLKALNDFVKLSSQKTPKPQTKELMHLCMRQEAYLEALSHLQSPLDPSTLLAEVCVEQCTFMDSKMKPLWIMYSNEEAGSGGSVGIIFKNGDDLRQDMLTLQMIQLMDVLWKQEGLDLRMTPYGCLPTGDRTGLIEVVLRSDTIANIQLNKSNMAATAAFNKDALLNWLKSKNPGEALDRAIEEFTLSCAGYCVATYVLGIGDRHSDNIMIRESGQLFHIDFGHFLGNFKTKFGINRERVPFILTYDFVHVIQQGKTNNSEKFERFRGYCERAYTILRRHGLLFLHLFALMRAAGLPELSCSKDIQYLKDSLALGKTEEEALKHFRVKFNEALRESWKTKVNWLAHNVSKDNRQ
Chain of PI3Kδ (p110δ/p85α) Recombinant Human Protein (P27986 whole entry partner): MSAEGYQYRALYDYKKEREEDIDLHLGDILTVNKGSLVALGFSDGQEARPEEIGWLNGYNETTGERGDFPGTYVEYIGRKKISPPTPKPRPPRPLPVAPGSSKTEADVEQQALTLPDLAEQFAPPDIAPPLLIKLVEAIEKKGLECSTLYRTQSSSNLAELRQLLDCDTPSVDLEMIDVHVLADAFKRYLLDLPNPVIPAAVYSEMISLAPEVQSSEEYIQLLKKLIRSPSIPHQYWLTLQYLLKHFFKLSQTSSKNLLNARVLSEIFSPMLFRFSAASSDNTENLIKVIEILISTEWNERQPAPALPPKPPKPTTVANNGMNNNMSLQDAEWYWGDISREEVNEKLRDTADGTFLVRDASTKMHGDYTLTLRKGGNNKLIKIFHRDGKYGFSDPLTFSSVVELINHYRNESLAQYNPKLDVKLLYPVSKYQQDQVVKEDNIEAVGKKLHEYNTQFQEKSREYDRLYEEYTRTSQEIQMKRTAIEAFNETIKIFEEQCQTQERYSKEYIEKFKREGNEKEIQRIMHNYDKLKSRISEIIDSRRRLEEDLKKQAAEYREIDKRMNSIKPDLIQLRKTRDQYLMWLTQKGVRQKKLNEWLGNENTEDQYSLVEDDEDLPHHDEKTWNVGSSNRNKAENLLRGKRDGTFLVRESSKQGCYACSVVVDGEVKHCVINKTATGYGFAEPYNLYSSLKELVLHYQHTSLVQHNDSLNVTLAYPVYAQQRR

[3] = system: Phosphorylated Ribosomal Protein S6 (RPS6) in THP-1 cells; assay: THP-1 RPS6 ELISA assay; format: cell-based, human; conditions: 10 nM MCP-1, read-out: PI3Kγ_THP1_RPS6_ELISA IC50
[4] = Homo sapiens, THP-1, THP-1 cells

Chain of PI3Kγ (p110γ) Recombinant Human Protein (P48736 whole entry): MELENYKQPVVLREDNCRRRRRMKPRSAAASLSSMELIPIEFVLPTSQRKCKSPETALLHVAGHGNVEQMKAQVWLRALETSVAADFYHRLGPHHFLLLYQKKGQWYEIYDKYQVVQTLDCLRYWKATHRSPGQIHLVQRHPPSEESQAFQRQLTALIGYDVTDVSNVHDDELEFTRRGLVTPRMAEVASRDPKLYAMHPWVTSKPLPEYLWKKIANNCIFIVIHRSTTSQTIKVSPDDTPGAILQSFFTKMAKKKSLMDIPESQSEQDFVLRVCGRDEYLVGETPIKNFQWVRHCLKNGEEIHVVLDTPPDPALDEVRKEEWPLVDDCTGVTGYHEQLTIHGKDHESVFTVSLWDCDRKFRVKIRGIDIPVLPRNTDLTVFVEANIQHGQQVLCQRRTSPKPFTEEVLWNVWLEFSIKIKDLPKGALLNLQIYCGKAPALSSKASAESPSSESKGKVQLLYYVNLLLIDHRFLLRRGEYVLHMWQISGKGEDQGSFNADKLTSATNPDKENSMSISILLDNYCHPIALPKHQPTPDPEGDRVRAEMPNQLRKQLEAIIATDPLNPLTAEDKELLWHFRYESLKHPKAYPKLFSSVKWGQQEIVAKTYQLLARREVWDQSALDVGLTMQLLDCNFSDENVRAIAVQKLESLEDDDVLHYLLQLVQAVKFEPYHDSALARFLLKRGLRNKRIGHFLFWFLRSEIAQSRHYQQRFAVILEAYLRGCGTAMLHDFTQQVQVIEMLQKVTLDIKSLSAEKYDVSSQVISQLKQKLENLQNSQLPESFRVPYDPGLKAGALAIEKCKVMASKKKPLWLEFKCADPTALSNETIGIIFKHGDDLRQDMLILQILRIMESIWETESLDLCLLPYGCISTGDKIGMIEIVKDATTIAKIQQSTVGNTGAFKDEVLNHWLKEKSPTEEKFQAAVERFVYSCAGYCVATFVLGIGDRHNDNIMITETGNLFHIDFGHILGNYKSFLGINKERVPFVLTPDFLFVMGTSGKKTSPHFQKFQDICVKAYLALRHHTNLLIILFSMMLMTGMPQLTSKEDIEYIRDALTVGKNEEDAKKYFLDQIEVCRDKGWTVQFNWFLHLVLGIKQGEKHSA

Row | SMILES | IC50 [1] [nM] | IC50 [2] [nM] | IC50 [3, 4] [nM] | IC50 ([3]; THP-1 cells) [nM]
1 | CC(NC(=O)c1c(N)nn2cccnc12)c1cc(Cl)c2cncn2c1N1CCS(=O)(=O)CC1 (stereo not drawn) [Example 36, 2-Amino-N-(1-[8-chloro-5-(1,1-dioxidothiomorpholin-4-yl)imidazo[1,5-a]pyridin-6-yl]ethyl)pyrazolo[1,5-a]pyrimidine-3-carboxamide trifluoroacetate salt] | < 100 | < 100 | < 500 | 
2 | CC(NC(=O)c1c(N)nn2cccnc12)c1cc(Cl)c2cncn2c1N1CC[S+]([O-])CC1 (stereo not drawn) [Example 37, 2-Amino-N-(1-[8-chloro-5-(1-oxidothiomorpholin-4-yl)imidazo[1,5-a]pyridin-6-yl]ethyl)pyrazolo[1,5-a]pyrimidine-3-carboxamide trifluoroacetate salt] | < 100 | < 500 | < 500 | 
3 | CC(NC(=O)c1c(N)nn2cccnc12)c1cc(Cl)c2cncn2c1N1CCS(=O)(=O)CC1C (stereo not drawn) [Example 38B, 2-Amino-N-(1-[8-chloro-5-(3-methyl-1,1-dioxidothiomorpholin-4-yl)imidazo[1,5-a]pyridin-6-yl]ethyl)pyrazolo[1,5-a]pyrimidine-3-carboxamide trifluoroacetate salt] | < 100 | < 100 | < 500 | 
4 | CC(NC(=O)c1c(N)nn2cccnc12)c1cc(Cl)c2cncn2c1N1CCS(=N)(=O)CC1 (stereo not drawn) [Example 39, 2-Amino-N-(1-[8-chloro-5-(1-imino-1-oxidothiomorpholin-4-yl)imidazo[1,5-a]pyridin-6-yl]ethyl)pyrazolo[1,5-a]pyrimidine-3-carboxamide] | < 100 | < 100 | < 500 | 
5 | CC(NC(=O)c1c(N)nn2cccnc12)c1cc(Cl)c2cncn2c1N1CCS(=O)(=O)C(C)(C)C1 (stereo not drawn) [Example 40, 2-Amino-N-(1-[8-chloro-5-(2,2-dimethyl-1,1-dioxidothiomorpholin-4-yl)imidazo[1,5-a]pyridin-6-yl]ethyl)pyrazolo[1,5-a]pyrimidine-3-carboxamide trifluoroacetate salt] | < 100 | < 100 | < 500 | 
6 | CCOc1c(C(C)NC(=O)c2c(N)nn3ccc(-c4cncc(OC)c4)nc23)cc(Cl)c2cn[nH]c12 (stereo not drawn) [Example 41, 2-Amino-N-(1-(4-chloro-7-ethoxy-1H-indazol-6-yl)ethyl)-5-(5-methoxypyridin-3-yl)pyrazolo[1,5-a]pyrimidine-3-carboxamide] | < 100 | < 100 | < 500 | 
7 | CCOc1c(C(C)NC(=O)c2c(N)nn3ccc(-c4cncc(CO)c4)nc23)cc(Cl)c2cn[nH]c12 (stereo not drawn) [Example 42, 2-Amino-N-(1-(4-chloro-7-ethoxy-1H-indazol-6-yl)ethyl)-5-(5-(hydroxymethyl)pyridin-3-yl)pyrazolo[1,5-a]pyrimidine-3-carboxamide] | < 100 | < 100 | < 500 | 
8 | CCOc1c(C(C)NC(=O)c2c(N)nn3ccc(-c4cncc(OC)c4)nc23)cc(Cl)c2c(Cl)n[nH]c12 (stereo not drawn) [Example 43, 2-Amino-N-(1-(3,4-dichloro-7-ethoxy-1H-indazol-6-yl)ethyl)-5-(5-methoxypyridin-3-yl)pyrazolo[1,5-a]pyrimidine-3-carboxamide trifluoroacetate salt] | < 100 | < 100 | < 500 | 
9 | CCOc1c(C(C)NC(=O)c2c(N)nn3ccc(N4CCCCC4)nc23)cc(Cl)c2cn[nH]c12 (stereo not drawn) [Example 44, 2-Amino-N-(1-(4-chloro-7-ethoxy-1H-indazol-6-yl)ethyl)-5-(piperidin-1-yl)pyrazolo[1,5-a]pyrimidine-3-carboxamide trifluoroacetate salt] | < 500 | < 2000 | > 1000 | 
10 | CCOc1c(C(C)NC(=O)c2c(N)nc3ccc(Cl)nn23)cc(Cl)c2cn[nH]c12 (stereo not drawn) [Example 45, 2-Amino-6-chloro-N-(1-(4-chloro-7-ethoxy-1H-indazol-6-yl)ethyl)imidazo[1,2-b]pyridazine-3-carboxamide] | < 100 | < 100 | < 500 | 
11 | CCOc1c(C(C)NC(=O)c2c(N)nc3ccc(-c4cncc(CO)c4)nn23)cc(Cl)c2cn[nH]c12 (stereo not drawn) [Example 48, 2-Amino-N-(1-(4-chloro-7-ethoxy-1H-indazol-6-yl)ethyl)-6-(5-(hydroxymethyl)pyridin-3-yl)imidazo[1,2-b]pyridazine-3-carboxamide] | < 100 | < 100 | < 500 | 
12 | CCOc1c(C(C)NC(=O)c2c(N)nc3ccc(-c4cncc(CO)c4)nn23)cc(Cl)c2c(Cl)n[nH]c12 (stereo not drawn) [Example 49, 2-Amino-N-(1-(3,4-dichloro-7-ethoxy-1H-indazol-6-yl)ethyl)-6-(5-(hydroxymethyl)pyridin-3-yl)imidazo[1,2-b]pyridazine-3-carboxamide] | < 100 | < 100 | < 500 | 
13 | CCOc1c(C(C)NC(=O)c2c(N)nn3ccc(-c4cccnc4)nc23)cc(Cl)c2cn[nH]c12 (stereo not drawn) [Example 50, 2-Amino-N-[1-(4-chloro-7-ethoxy-1H-indazol-6-yl)ethyl]-5-pyridin-3-ylpyrazolo[1,5-a]pyrimidine-3-carboxamide bis(trifluoroacetate)] | < 100 | < 100 | < 500 | 
14 | CCOc1c(C(C)NC(=O)c2c(N)nn3cccnc23)cc(Cl)c2c(Br)n[nH]c12 (stereo not drawn) [Example 52, 2-Amino-N-(1-(3-bromo-4-chloro-7-ethoxy-1H-indazol-6-yl)ethyl)pyrazolo[1,5-a]pyrimidine-3-carboxamide trifluoroacetate] | < 100 | < 500 | < 500 | 
15 | CCOc1c(C(C)NC(=O)c2c(N)nn3cccnc23)cc(Cl)c2c(Br)n(CCO)nc12 (stereo not drawn) [Example 53, 2-Amino-N-(1-(3-bromo-4-chloro-7-ethoxy-2-(2-hydroxyethyl)-2H-indazol-6-yl)ethyl)pyrazolo[1,5-a]pyrimidine-3-carboxamide] | < 100 | < 2000 | > 1000 | 
16 | CCOc1c(C(C)NC(=O)c2c(N)nn3cccnc23)cc(Cl)c2c(Br)nn(CCO)c12 (stereo not drawn) [Example 54, 2-Amino-N-(1-(3-bromo-4-chloro-7-ethoxy-1-(2-hydroxyethyl)-1H-indazol-6-yl)ethyl)pyrazol[1,5-a]pyrimidine-3-carboxamide trifluoroacetate] | < 100 | < 100 |  | > 1000
17 | CC(NC(=O)c1c(N)nn2cccnc12)c1cc(Cl)c2c(C#N)cnn2c1N1CCS(=O)(=O)CC1 (stereo not drawn) [Example 60, 2-Amino-N-(1-(4-chloro-3-cyano-7-(1,1-dioxidothiomorpholino)pyrazolo[1,5-a]pyridin-6-yl)ethyl)pyrazolo[1,5-a]pyrimidine-3-carboxamide trifluoroacetate] | < 100 | < 500 | < 500 | 

Results, then the molecule that gave them:

Row | IC50 [1] [nM] | IC50 [2] [nM] | IC50 [3, 4] [nM] | IC50 ([3]; THP-1 cells) [nM] | SMILES
18 | < 100 | < 2000 | > 1000 |  | CC(NC(=O)c1c(N)nn2cccnc12)c1cc(Cl)c2c(C#N)n[nH]c2c1-c1ccccc1 (stereo not drawn) [Example 55, 2-Amino-N-(1-(4-chloro-3-cyano-7-phenyl-1H-indazol-6-yl)ethyl)pyrazolo[1,5-a]pyrimidine-3-carboxamide trifluoroacetate]
19 | < 100 | < 100 | < 500 |  | CC(NC(=O)c1c(N)nn2cccnc12)c1cc(Cl)c2ccnn2c1N1CCC(C#N)CC1 (stereo not drawn) [Example 56, 2-Amino-N-(1-(4-chloro-7-(4-cyanopiperidin-1-yl)pyrazolo[1,5-a]pyridin-6-yl)ethyl)pyrazolo[1,5-a]pyrimidine-3-carboxamide trifluoroacetate]
20 | < 100 | < 100 | < 500 |  | C[C@H](NC(=O)c1c(N)nn2cccnc12)c1cc(Cl)c2ccnn2c1N1CCS(=O)(=O)CC1 [Example 57, (S)-2-Amino-N-(1-(4-chloro-7-(1,1-dioxidothiomorpholino)pyrazolo[1,5-a]pyridin-6-yl)ethyl)pyrazolo[1,5-a]pyrimidine-3-carboxamide trifluoroacetate]
21 | < 100 | < 100 | < 500 |  | C[C@H](NC(=O)c1c(N)nn2cccnc12)c1cc(Cl)c2c(F)cnn2c1N1CCS(=O)(=O)CC1 [Example 58, (S)-2-Amino-N-(1-(4-chloro-7-(1,1-dioxidothiomorpholino)-3-fluoropyrazolo[1,5-a]pyridin-6-yl)ethyl)pyrazolo[1,5-a]pyrimidine-3-carboxamide trifluoroacetate]
22 | < 100 | < 100 | < 500 |  | CC(NC(=O)c1c(N)nn2cccnc12)c1cc(Cl)c2ccnn2c1-c1cccnc1 (stereo not drawn) [Example 59, 2-Amino-N-(1-(4-chloro-7-(pyridin-3-yl)pyrazolo[1,5-a]pyridin-6-yl)ethyl)pyrazolo[1,5-a]pyrimidine-3-carboxamide trifluoroacetate]
23 | < 100 | < 2000 | < 1000 |  | CC(NC(=O)c1c(N)nn2cccnc12)c1cc(Cl)c2c(C#N)cnn2c1N1CCC[C@H](O)C1 (stereo partly drawn) [Example 61, 2-Amino-N-(1-(4-chloro-3-cyano-7-((S)-3-hydroxypiperidin-1-yl)pyrazolo[1,5-a]pyridin-6-yl)ethyl)pyrazolo[1,5-a]pyrimidine-3-carboxamide trifluoroacetate]
24 | < 100 | < 500 | < 500 |  | CC(NC(=O)c1c(N)nn2cccnc12)c1cc(Cl)c2cncn2c1C1CCCC1 (stereo not drawn) [Example 62, 2-amino-N-(1-(8-chloro-5-cyclopentylimidazo[1,5-a]pyridin-6-yl)ethyl)pyrazolo[1,5-a]pyrimidine-3-carboxamide trifluoroacetate]
25 | < 500 | < 500 | < 500 |  | CC(NC(=O)c1c(N)nn2cccnc12)c1cc(Cl)c2cnnn2c1-c1ccccc1 (stereo not drawn) [Example 63, 2-Amino-N-(1-(4-chloro-7-phenyl-[1,2,3]triazolo[1,5-a]pyridin-6-yl)ethyl)pyrazolo[1,5-a]pyrimidine-3-carboxamide trifluoroacetate]
